target: T1, Tyrosinase (Homo sapiens, UniProt P14679); test: Inhibition of tyrosinase (unknown origin) using L-DOPA as substrate preincubated with substrate for 5 mins followed by enzyme addition and measured immediately by spectrophotometric method
T1 sequence (P14679 whole entry): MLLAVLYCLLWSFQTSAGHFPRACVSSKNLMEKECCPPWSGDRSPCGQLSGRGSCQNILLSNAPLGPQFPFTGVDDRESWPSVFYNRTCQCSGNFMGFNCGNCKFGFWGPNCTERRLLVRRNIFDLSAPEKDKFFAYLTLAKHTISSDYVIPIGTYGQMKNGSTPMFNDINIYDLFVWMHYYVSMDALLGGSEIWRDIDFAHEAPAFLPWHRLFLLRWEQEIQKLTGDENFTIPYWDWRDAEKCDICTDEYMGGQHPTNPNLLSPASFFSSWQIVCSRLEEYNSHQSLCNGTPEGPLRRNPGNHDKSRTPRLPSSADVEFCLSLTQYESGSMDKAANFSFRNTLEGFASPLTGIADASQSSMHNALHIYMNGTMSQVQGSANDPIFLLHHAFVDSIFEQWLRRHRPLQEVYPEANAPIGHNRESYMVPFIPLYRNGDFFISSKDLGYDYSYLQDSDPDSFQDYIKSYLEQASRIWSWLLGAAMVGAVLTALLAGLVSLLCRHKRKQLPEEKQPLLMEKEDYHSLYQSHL

Structure (SMILES) | IC50 [µM]
OC[C@H]1O[C@@H](Oc2ccc(O)cc2O)[C@H](O)[C@@H](O)[C@@H]1O | 417

target: T2, Tyrosinase (Agaricus bisporus, UniProt O42713); test: Inhibition of mushroom tyrosinase using TBC as substrate by spectrophotometric method
T2 sequence (O42713 whole entry): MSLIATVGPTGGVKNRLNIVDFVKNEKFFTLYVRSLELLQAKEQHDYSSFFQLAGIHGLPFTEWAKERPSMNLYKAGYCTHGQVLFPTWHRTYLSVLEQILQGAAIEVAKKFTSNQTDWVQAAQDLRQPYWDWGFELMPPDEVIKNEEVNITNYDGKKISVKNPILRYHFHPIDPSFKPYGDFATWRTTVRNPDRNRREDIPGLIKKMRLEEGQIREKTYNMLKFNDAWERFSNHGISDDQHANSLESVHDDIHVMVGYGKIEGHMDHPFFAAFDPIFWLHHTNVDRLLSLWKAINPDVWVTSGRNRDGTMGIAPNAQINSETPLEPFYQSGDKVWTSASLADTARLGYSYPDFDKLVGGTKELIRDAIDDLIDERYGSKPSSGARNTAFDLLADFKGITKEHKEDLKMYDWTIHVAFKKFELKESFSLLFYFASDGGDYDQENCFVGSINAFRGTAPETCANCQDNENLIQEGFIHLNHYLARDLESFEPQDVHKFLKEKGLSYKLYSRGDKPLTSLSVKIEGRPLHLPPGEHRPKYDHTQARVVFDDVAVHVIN

Structure (SMILES) | IC50 [nM]
OC[C@H]1O[C@@H](OCCCCCCCCCCCCCCc2ccc(O)cc2O)[C@H](O)[C@@H](O)[C@@H]1O | 390
OC[C@H]1O[C@@H](OCCc2ccc(O)cc2O)[C@H](O)[C@@H](O)[C@@H]1O | 35900
OC[C@H]1O[C@@H](OCCCCCCc2ccc(O)cc2O)[C@H](O)[C@@H](O)[C@@H]1O | 630
OC[C@H]1O[C@@H](OCCCCCCCCCCc2ccc(O)cc2O)[C@H](O)[C@@H](O)[C@@H]1O | 410
OC[C@H]1O[C@@H](OCCCCc2ccc(O)cc2O)[C@H](O)[C@@H](O)[C@@H]1O | 1360
OC[C@H]1O[C@@H](OCCCc2ccc(O)cc2O)[C@H](O)[C@@H](O)[C@@H]1O | 3620
CCCCCCc1ccc(O)cc1O [HEXYLRESORCINOL] | 610
